“Also recorded” adds a separate entry of the source.
Key:
[1] = tested on: phosphorylated p38 (P-p38); experiment: IT substance P-evoked spinal p38 phosphorylation (Western blot); type: in vivo, rat; conditions: IT AS daily for five days, assessed 30 minutes after IT SP injection, compared to the MS group
Experimental: Yaksh et al., Nature 286: 155-157, 1980; Yaksh, Trends Pharmacol Sci 20: 329-337, 1999. […] Malmberg and Yaksh, Science 257: 1276-1279, 1992; Svensson et al., J Neurochem 86: 1534-1544, 2003. […] To investigate the contribution of p38α and p38β to SP-evoked hyperalgesia and p38 phosphorylation, spinal delivery of p38α and p38β AS and MS was carried out. Thermal withdrawal latencies was assessed after IT injection of SP and lumbar spinal cords collected immediately to compare the degree of spinal p38 phosphorylation at the hypothesized time of peak phosphorylation. IT injection of SP into the MS group produced an expected reduction of thermal withdrawal latency in comparison with IT saline injection into to vehicle treated animals (FIG. 7C). […] In contrast, IT SP-induced thermal hyperalgesia was attenuated in rats which had received p38β AS (FIG. 7E). […] Stripping and reprobing the western blot membranes confirmed that p38α protein expression was knocked down in p38α AS treated group (FIG. 7D) as well as p38β in the p38β AS group (FIG. 7F).
(A) Graph displaying paw withdrawal latency (PWL) plotted versus time. […] (B) Representative western blots showing levels of P-p38, total p38 and β-actin in lumbar spinal cord at different time points after IT injection of SP (30 nmol). IT-SP induced p38 phosphorylation peaks 30 minutes after SP injection. (C, E) Graph showing PWL assessed 15 and […] after bolus injection of IT saline or IT SP injection in rats treated with IT ACSF, MS (30 μg), p38α AS (30 fig) or p38β AS (20 μg) daily for five days. […] IT injection of MS or ACSF had no effect on IT SP-evoked thermal hyperalgesia. Each time point represents the mean ±SEM (n=4-5 per group). (D, F) Representative western blots showing the level of P-p38, p38α and p38β and β-actin protein expression assessed 30 minutes after IT SP injection.
Western blot. Prior to sacrifice, rats were deeply anesthetized and after decapitation the spinal cords were ejected from the vertebral column by a saline-filled syringe. The lumbar part of the spinal cord was immediately homogenized in extraction buffer (50 mM Tris buffer, pH 8.0, containing 0.5% Triton X-100, 150 mM NaCl, 1 mM EDTA, phosphatase and protease inhibitors) by sonication. […] After washing, the antibody-protein complexes were probed with appropriate secondary antibodies labeled with horseradish peroxidase for 1 hr at room temperature and detected with chemiluminescent reagents (SuperSignal, Pierce, Rockford, Ill.). […] Intensity of immunoreactive bands was quantified using ImageQuant software (Molecular Dynamics, Sunnyvale, Calif.). p38 immuno-positive bands were normalized relative to β-actin.

[2] = tested on: phosphorylated p38 (P-p38); experiment: Formalin-induced phosphorylation of spinal p38 (Western blot); type: in vivo, rat; conditions: IT p38α AS 30 μg or p38β AS 20 μg for 5 days; assessed 15 minutes after formalin; in comparison to MS treated rats
Experimental: Injection of formalin into the hind paw leads to phosphorylation of p38 MAP kinase in spinal cord, by 5 minutes after injection. Svensson et al., J Neurochem 86: 1534-1544, 2003b. A full time course was performed (0, 5, 15, 20, 30, 60 min) for formalin-induced phosphorylation of spinal p38 and found peak p38 phosphorylation at 15 min (FIG. 6A). As shown above, down regulation of spinal p380, leads to attenuation of formalin-induced hyperalgesia, it was hypothesized that down-regulation of spinal p38, would reduce the amount of phosphorylated p38 in the spinal cord after formalin injection.
(A) Representative western blots showing levels of P-p38, total p38 and β-actin in the contralateral (left side) and ipsilateral (right side) lumbar spinal cord at different time points after injection of formalin (2.5%, 50 μl) into the dorsal side of the right hind paw. (B) Rats were naïve (no IT treatment, no formalin paw injection) or treated with p38α AS (30 μg), p38β AS (20 μg) or missense (30 μg) for 5 days. On day six, formalin was injected to the hind paw and the level of phosphorylated p38 (P-p38) assessed 15 minutes after injection. […]
Western blot. […] After washing, the antibody-protein complexes were probed with appropriate secondary antibodies labeled with horseradish peroxidase for 1 hr at room temperature and detected with chemiluminescent reagents (SuperSignal, Pierce, Rockford, Ill.). […]

| Substance | phosphorylation of spinal p38 following IT SP [1] | phosphorylated p38 in the spinal cord after formalin injection [2] | phosphorylation of spinal p38 following IT SP ([1]; listed as p38 AS) |
| --- | --- | --- | --- |
| p38α AS: 20-nucleotide 2′-MOE phosphorothioate chimeric antisense AGGTGCTCAGGACTCCATTT, beginning at position 1081 in the rat p38α mRNA (all phosphorothioate, sugars by position and methylation of C not given here; 2'-MOE chimeric (gapmer) antisense) | did not show a reduction; also recorded: No difference in P-p38 | did not prevent spinal p38 phosphorylation |  |
| p38β AS: 20-nucleotide 2′-MOE phosphorothioate chimeric antisense GTATGTCCTCCTCGCGTGGA, beginning at position 439 in the rat p38β mRNA (all phosphorothioate, sugars by position and methylation of C not given here; 2'-MOE chimeric (gapmer) antisense) | pronounced reduction | reduction of phosphorylated p38 | significantly lower |

From US20080206253A1, “Method For Preventing or Treating Pain in a Mammal” (priority 2005, published 2008)
